Drawing on article PMC13249053, “Mechanism of auranofin toxicity: Inhibition of tetrahydrobiopterin metabolism” (Toxicology and applied pharmacology, 2025), this text covers IC50 for 1 compound.

The target in assay [1] is T1, SPR (Rattus norvegicus, UniProt P18297).
T1 construct: endogenous in cells; host or cells: PC12
Kind of assay: Cellular SPR activity: BH2 formation from sepiapterin in the presence of methotrexate, PC12 cells. Format: cell-based. Particulars: PC12 (rat pheochromocytoma); with methotrexate. How it is done: The growth medium was then removed and the cells incubated with growth medium containing 100 μM sepiapterin. […] BH2 and BH4 were then analyzed on a Jasco high-performance liquid chromatography system (Easton, MD) fitted with a Maxsil-10 C18 column (250 × 4 mm; Phenomenex, Torrance, CA). […] Cell viability following drug treatments was greater than 95 %.

Assay [2] concerns the target SPR (Homo sapiens, UniProt P35270). Kind of assay: Chemical (menadione) redox cycling by recombinant SPR, superoxide anion formation. Particulars: acetylated cytochrome c reduction at 550 nm, pH 7.8, read-out: IC50, inhibition of chemical redox cycling (superoxide anion production) by recombinant SPR. Set-up: made in house. In kind it is biochemical. How it is done: Sepiapterin reductase activity was assayed by measuring decreases in sepiapterin absorbance at 420 nm as described by Kato ([Kato, 1971]) with some modifications. Briefly, standard reaction mixes contained 100 mM potassium phosphate buffer, pH 7.0, 100 μM NADPH, 50 μM sepiapterin and 1 μg of enzyme protein in a final volume of 0.2 ml. Changes in absorbance of sepiapterin were monitored using a Spectramax M5 microplate reader (Molecular Devices, Sunnyvale, CA). […] Chemical redox cycling by SPR was assayed by measuring the formation of superoxide anion in the presence of menadione as previously described ([Yang et al., 2013]). […] Superoxide anion was measured spectrophotometrically by the reduction of acetylated cytochrome c at 550 nm. DHFR activity was measured as previously described ([Whitsett et al., 2013]) with some modifications. […] Enzyme activity was monitored by decreases in absorbance of NADPH at 340 nm using a microplate reader. […]
Fig. 5. […] SPR was measured in enzyme assays by decreases in sepiapterin absorbance at 420 nm as described in the Materials and Methods. DHFR activity in enzyme assays was measured by decreases in absorbance of NADPH at 340 nm. […] Redox cycling was measured spectrophotometrically by the reduction of acetylated cytochrome c at 550 nm during the formation of superoxide anion in enzyme assays in the presence of 100 μM menadione.

Each structure is given as a SMILES string.

SPR (Homo sapiens, UniProt P35270), sequence (P35270 whole entry): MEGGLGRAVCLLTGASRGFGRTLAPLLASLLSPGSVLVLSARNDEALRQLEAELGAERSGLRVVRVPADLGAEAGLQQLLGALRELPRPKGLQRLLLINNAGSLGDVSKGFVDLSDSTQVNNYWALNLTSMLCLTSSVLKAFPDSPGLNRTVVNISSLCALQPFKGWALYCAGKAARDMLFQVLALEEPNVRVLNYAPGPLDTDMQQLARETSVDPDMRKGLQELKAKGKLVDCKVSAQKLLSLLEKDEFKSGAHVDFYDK
T1 sequence (P18297 whole entry): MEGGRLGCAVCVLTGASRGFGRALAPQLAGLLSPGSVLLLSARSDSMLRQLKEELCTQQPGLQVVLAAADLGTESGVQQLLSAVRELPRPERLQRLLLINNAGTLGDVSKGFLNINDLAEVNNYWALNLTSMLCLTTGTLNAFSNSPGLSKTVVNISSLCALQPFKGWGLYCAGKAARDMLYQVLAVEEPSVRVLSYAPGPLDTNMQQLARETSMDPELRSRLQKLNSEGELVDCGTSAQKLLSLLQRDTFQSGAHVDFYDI

In general, IC50 refers to the concentration needed to halve the response being measured. As for `CC[PH](CC)(CC)[Au][S][C@@H]1O[C@H](COC(C)=O)[C@@H](OC(C)=O)[C@H](OC(C)=O)[C@H]1OC(C)=O` [auranofin, 2,3,4,6-tetra-O-acetyl-1-thio-β-D-glucopyranosato-S-triethyl phosphine gold], the values for the IC50 in assay [1] and in assay [2] were 1000 ± 110 nM and 600 nM, respectively.
